Reference: US7504231B2, “Method of alleviating chronic pain via peripheral inhibition of neurotransmitter synthesis” (The Board of Regents of the University of Oklahoma, priority 2001, dated 2009)
Entries after “also recorded” stand apart in the source; their conditions may differ. Each block holds one compound with its values, some of them ahead of it.

Legend:
[1] = system: CFA induced inflammation of the rat hindpaw (thermal hyperalgesia); experiment: Thermal latencies (Hargreaves' model) in rats with CFA hindpaw inflammation; type: in vivo
Procedure: (§1) For the experiments described in FIGS. 1-16, adult Sprague Dawley male rats, 200-300 g, were used. One set of normal rats was used to evaluate the effects of fixation on glutaminase immunohistochemical staining and for determining antisera dilutions. For all other rats, at day 0, a limited arthritis was induced in the right hindpaw by the intraplantar subcutaneous injection of 75-150 μl of complete Freund's adjuvant (CFA; Mycobacterium butyricum; Sigma) emulsified in saline (1:1). Controls were naive rats that received no injection or rats that received intraplantar injection of saline (75 μl). For peripheral glutaminase inhibition studies, the inflamed hindpaws were injected with glutaminase inhibitors (25 μl) at day 3 of inflammation. Some rats with inflammation received saline injections (25 μl) into the inflamed hindpaw at day 3. […] Efforts were made to minimize the number of animals used for this study.
Thermal latencies for the footpad plantar surface were determined with the Hargreaves' model (Ugo Basile, Italy). Rats were placed on an elevated glass plate (3 mm) in clear plastic boxes with air holes in the lids and allowed to acclimate for 10 minutes. Radiant heat was applied to the plantar surface of the hindpaw and the withdrawal latency recorded. A second test was followed after 5-10 minutes. All behavioral testing occurred at 21-22° C. with indirect lighting in the testing room. Differences between groups for pressure thresholds and thermal latencies were determined with a Student's t test (p<0.05 for significance) using InStat biological statistics program (GraphPad Software, Inc., San Diego).

[2] = system: CFA induced inflammation of the rat hindpaw (mechanical allodynia); experiment: Pressure sensitivity with von Frey hairs (paw pressure withdrawal threshold) in rats with CFA hindpaw inflammation; type: in vivo; conditions: for pressure responses after intrathecal inhibitor: injected intrathecally prior to initiation of CFA inflammation, tested 4 days, before ~70 gms, CFA ~10 gms
[3] = system: CFA induced inflammation of the rat hindpaw (mechanical allodynia); experiment: as above; type: in vivo; conditions: for Paw pressure withdrawal thresholds (PPWT): CFA+saline 5-12 g, control 50-70 g
Procedure: as §1
Two to three days prior to and for the days following CFA injection, rats were tested for pressure sensitivity with von Frey hairs (Semmes-Weinstein monofilaments; Stoelting, Inc.). […] Monofilaments calibrated for specific forces were inserted through the holes underneath the box to probe the plantar surface of the hindpaw, 5 times in 3-4 sec intervals in different places on the plantar surface. Filaments with light force were used first, followed by filaments of increasing force. A filament was slowly applied perpendicularly to the plantar surface until bending of the filament occurred. […] The threshold force was defined as the filament (force) that caused the foot retraction without bending the monofilament three out of five times. Using a conversion table for the filaments, thresholds were reported as gram force.

hindpaw of normal rats = experiment: DON controls: pressure and thermal sensitivities after intraplantar injection in normal rats; type: in vivo, rat; conditions: DON 10 μMole/25 μl injected on day 3, no inflammation
Procedure: FIG. 10 illustrates DON controls.
Two to three days prior to and for the days following CFA injection, rats were tested for pressure sensitivity with von Frey hairs (Semmes-Weinstein monofilaments; Stoelting, Inc.). Rats were allowed to acclimate for five to ten minutes in a plastic box (25×25×25 cm) with 6 mm holes spaced every 6 mm [Pitcher et al, 1999a,b]. Monofilaments calibrated for specific forces were inserted through the holes underneath the box to probe the plantar surface of the hindpaw, 5 times in 3-4 sec intervals in different places on the plantar surface. Filaments with light force were used first, followed by filaments of increasing force. A filament was slowly applied perpendicularly to the plantar surface until bending of the filament occurred. […] The threshold force was defined as the filament (force) that caused the foot retraction without bending the monofilament three out of five times. […]
Thermal latencies for the footpad plantar surface were determined with the Hargreaves' model (Ugo Basile, Italy). […] Radiant heat was applied to the plantar surface of the hindpaw and the withdrawal latency recorded. […] Differences between groups for pressure thresholds and thermal latencies were determined with a Student's t test (p<0.05 for significance) using InStat biological statistics program (GraphPad Software, Inc., San Diego).

[4] = system: GLU-IR fibers in the paw skin; experiment: Glutamate immunohistochemistry of hindpaw skin after CFA inflammation; type: in vivo, rat; conditions: CFA + inhibitor, skin after 7 days; control very little, CFA+saline many intense fibers
Procedure: (§2) The skin from the hindpaws were also processed for GLU and GT immunohistochemistry after 7 days (FIG. 12). Control rats had very little GLU or GT-immunoreactive (IR) fibers in the paw skin. Skin from CFA+saline rats contained many intense GLU-IR and GT-IR fibers.
(§3) For immunohistochemical localization of GT, rats at 3, 7, and 10 days (n=6 CFA/time pt; n=4 control/time pt; n=3 additional controls) were anesthetized with sodium pentobarbital (90 mg/kg) and transcardially perfused with fixative: 0.2% paraformaldehyde (PFA), […] (PA) in 0.1M phosphate buffer, pH 7.4 [Miller et al, 1993, 2002]. Right and left L4DRG's and hindpaws were removed and placed overnight in fixative at 4° C.; the PFA concentration was increased to 2% for post-fixation [Miller et al, 1993, 2002]. Additional control rats (n=3) were perfused transcardially with 4% PFA in 0.1M Sorenson's phosphate buffer, pH 7.4. DRG's were removed and placed in fixative overnight at 4° C. All tissues were transferred to 20% sucrose in 0.1M Sorenson's phosphate buffer, pH 7.4 for 24-96 hr. at 4° C. The tissue was frozen, sectioned at 20 μm in a cryostat, thaw mounted onto gelatin coated slides, and dried for 1 hr. at 37° C. […]

[5] = system: GT-IR fibers in the paw skin; experiment: Glutaminase immunohistochemistry of hindpaw skin after CFA inflammation; type: in vivo, rat; conditions: CFA + inhibitor, skin after 7 days; control very little, CFA+saline many intense fibers
Procedure: as §2, §3

[6] = BB 200 μM/25 μl at day three following CFA inflammation
[7] = NEM 10 mM/25 μl at day three following CFA inflammation
[8] = P-CoA 2 mM/25 μl at day three following CFA inflammation

Compound: O=c1oc2ccccc2c(O)c1Cc1c(O)c2ccccc2oc1=O [DC, dicoumarol]
Thermal latencies (hyperalgesia) as inflammation progressed ([1]; dicoumarol 15 μl @ 500 μM i.t. on days 0, 1 and 2, CFA at Day 0): less hyperalgesic
pressure responses (allodynia) as inflammation progressed ([2]; dicoumarol 15 μl @ 500 μM i.t. on days 0, 1 and 2, CFA at Day 0, data not shown): less hyperalgesic and allodynic

Compound: [N-]=[N+]=CC(=O)CC[C@H](N)C(=O)O [DON, 6-diazo-5-oxo-L-norleucine]
Paw pressure withdrawal thresholds (PPWT) ([3]; CFA+DON rats, 25 μl into right paw after 2-3 days, from 6 hours through the duration of the experiment): 20 to 30 g
dose response for pain relief from pressure, area under the curve Day 3 to Day 5 ([3]; DON 0.1-10 μMole/25 μl): No differences in the amount of pain relief
long term pain relief to pressure (mechanical stimulation) ([3]; DON 0.1-10 μMole/25 μl, three doses, at day three following CFA inflammation): pain relief occurred for several days
dose response for pain relief from thermal stimulation, area under the curve Day 3 to Day 5 ([1]; DON 0.1-10 μMole/25 μl): most efficacious at the higher doses
long term pain relief to heat (thermal stimulation) ([1]; DON 0.1-10 μMole/25 μl, all three doses, at day 3 after CFA inflammation): pain relief occurred for several days
pain relief to heat (thermal responses) ([1]; DON 0.1 and 1 μMole at day 3 after CFA inflammation): pain relief to near normal levels for at least one day
pain relief to heat (thermal responses) ([1]; DON 10 μMole at day 3 after CFA inflammation): bringing thermal responses back to normal for two days
pressure sensitivity in normal rats (hindpaw of normal rats): same as saline controls
thermal sensitivity in normal rats (hindpaw of normal rats): same as saline controls
GLU-IR fibers in hindpaw skin [4]: reduced to near normal levels; also recorded: moderate numbers
GT-IR fibers in hindpaw skin [5]: moderate numbers
pressure responses after intrathecal inhibitor [2]: near normal pressure responses for several days

Compound: Cc1c(C2(c3cc(C(C)C)c(O)c(Br)c3C)OS(=O)(=O)c3ccccc32)cc(C(C)C)c(O)c1Br [BB, bromothymol blue]
long term pain relief to pressure (mechanical stimulation) [3, 6]: pain relief on Day 5
long term pain relief to heat (thermal stimulation) [1, 6]: pain relief from Days 5-7 and at near normal levels from Days 6 and 7

GT-IR fibers in hindpaw skin [5]: moderate numbers
Compound: CCN1C(=O)C=CC1=O [NEM, N-ethylmaleimide]
Paw pressure withdrawal thresholds (PPWT) ([3]; CFA+NEM rats, after 48 hours): 20 to 25 g
long term pain relief to pressure (mechanical stimulation) [3, 7]: pain relief occurred for several days
long term pain relief to heat (thermal stimulation) [1, 7]: pain relief occurred to near normal levels at days four and six
GLU-IR fibers in hindpaw skin [4]: reduced to near normal levels; also recorded: moderate numbers

Compound: O=C(O)CF [FA, fluoroacetate]
pressure responses after intrathecal inhibitor [2]: near normal pressure responses for several days

Compound: CCCCCCCCCCCCCCCC(=O)SCCNC(=O)CCNC(=O)[C@H](O)C(C)(C)COP(=O)(O)OP(=O)(O)OC[C@H]1O[C@@H](n2cnc3c(N)ncnc32)[C@H](O)[C@@H]1OP(=O)(O)O [P-CoA, Palmitoyl Coenzyme A]
long term pain relief to pressure (mechanical stimulation) [3, 8]: pain relief from Days 4-7
long term pain relief to heat (thermal stimulation) [1, 8]: pain relief to near normal levels from Days 4-7

Compound: CS(=N)(=O)CC[C@H](N)C(=O)O (stereo partly drawn) [MSO, methionine sulfoximine]
pressure responses ([3]; MSO injected into inflamed hindpaw at Day 3, one-time, over several days, before inflammation ~70 gms, after ~10 gms): ~50 gms
Thermal responses ([1]; MSO injected into inflamed hindpaw at Day 3, one-time, before inflammation ~9 sec, after ~3 sec): near normal levels by day 6 through day 9
pressure responses after intrathecal inhibitor [2]: near normal pressure responses for several days
